Measurements: patent US6492137B1, “Response element compositions and assays employing same” (The Salk Institute for Biological Studies, priority 1989, dated 2002)

Columns and labels:
[1] = target: T1, RARα (Homo sapiens, UniProt P10276); experiment: Gel retardation DNA-binding assay with RARα-expressing COS cell extracts; parameters: expressed in transfected cells; host or cells: COS cells (whole-cell extract); details: for competition for RARα binding to 32P-labeled βRARE: unlabeled competitor oligonucleotide, COS cell extracts
T1 sequence (P10276 1-462): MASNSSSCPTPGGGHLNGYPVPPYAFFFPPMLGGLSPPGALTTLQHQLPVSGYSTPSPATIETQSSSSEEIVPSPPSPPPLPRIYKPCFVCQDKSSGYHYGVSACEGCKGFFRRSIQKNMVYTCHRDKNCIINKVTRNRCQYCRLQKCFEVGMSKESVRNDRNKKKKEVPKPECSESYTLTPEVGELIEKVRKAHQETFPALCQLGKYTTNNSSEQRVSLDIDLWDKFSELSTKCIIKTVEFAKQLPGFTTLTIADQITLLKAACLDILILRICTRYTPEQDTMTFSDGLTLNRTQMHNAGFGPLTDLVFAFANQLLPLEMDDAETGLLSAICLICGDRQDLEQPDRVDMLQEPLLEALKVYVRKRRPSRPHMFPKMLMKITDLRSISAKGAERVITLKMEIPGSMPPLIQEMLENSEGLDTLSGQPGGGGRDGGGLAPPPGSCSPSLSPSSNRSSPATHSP
Description: (§1) For DNA binding assays, COS cells were cultured in DMEM with 10% calf bovine serum and transfected by the calcium phosphate method with 20 μg of the pCMX receptor expression plasmid for 6 hours followed by a glycerol shock. After incubating the transfected COS cells for another 48 hours, the cells were harvested to prepare extracts for the DNA binding assay, carried out as described by Damm et al., Nature 339: 593-597 (1989). The extracts were made in 20 mM HEPES (pH 7.4), 0.4 M KCl, 2 mM DTT and 20% glycerol. A similar method was employed to prepare a whole cell extract from F9 stem cells. For the binding, 5 μg (COS) or 10 μg (F9) of proteins was incubated on ice for 20 minutes, first in 20 mM HEPES, 80 mM KCl, 1 mM DTT, 0.1% NP40, 2.5 μg of poly dI/dC, and 10% glycerol (cold competitor oligonucleotides, when included, were added during this pre-incubation period). Then 40 fmole of ^32P-labeled oligonucleotide probe (1-2×10^5 cpm, prepared by filling-in reaction using Klenow polymerase in the presence of α-^32P-dCTP) was added to the reaction mixture, followed by incubation at room temperature for 30 minutes. The receptor-DNA complexes were resolved by electrophoresis through 5% polyacrylamide gel containing 5% glycerol at 6 V/cm at room temperature.
Oligonucleotides listed in FIG. 3 were used as a probe to test specific DNA-binding of the RARα and TRβ in a gel retardation assay. On the βRARE, a faint background binding activity was detected in the mock transfected COS cell extract. […] In each case the result obtained from in vivo transactivation and in vitro DNA binding are consistent.
Using the mobility shift assay, the DNA-binding capacity of extracts from COS cells expressing TRβ and RARα to these sequences was also tested. […] This pattern is consistent with that of the in vivo activation (FIG. 4). A reciprocal pattern was obtained when the same oligonucleotides were used to compete RARα binding to the ^32P-labeled βRARE. […] This provides a striking example of the role of half-site spacing in generating a functional response element.

[2] = target: T2, TRβ (Homo sapiens, UniProt P10828); experiment: Gel retardation DNA-binding assay with TRβ-expressing COS cell extracts; parameters: expressed in transfected cells; host or cells: COS cells (whole-cell extract); details: unlabeled competitor oligonucleotide; COS cells expressing TRβ
T2 sequence (P10828 1-461): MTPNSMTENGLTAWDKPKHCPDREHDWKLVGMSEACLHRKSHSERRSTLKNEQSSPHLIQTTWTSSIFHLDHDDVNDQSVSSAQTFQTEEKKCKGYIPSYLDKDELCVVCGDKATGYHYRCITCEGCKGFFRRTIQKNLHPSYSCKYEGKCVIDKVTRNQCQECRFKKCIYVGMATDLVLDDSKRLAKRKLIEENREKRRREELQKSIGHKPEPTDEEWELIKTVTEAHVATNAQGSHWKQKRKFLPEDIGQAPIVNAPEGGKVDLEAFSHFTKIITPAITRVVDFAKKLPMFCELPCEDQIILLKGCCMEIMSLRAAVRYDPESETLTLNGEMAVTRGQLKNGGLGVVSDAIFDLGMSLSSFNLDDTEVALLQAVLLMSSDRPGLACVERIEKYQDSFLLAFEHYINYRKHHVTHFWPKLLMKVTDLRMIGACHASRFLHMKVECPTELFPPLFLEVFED
Description: as §1
Oligonucleotides listed in FIG. 3 were used as a probe to test specific DNA-binding of the RARα and TRβ in a gel retardation assay.
Using the mobility shift assay, the DNA-binding capacity of extracts from COS cells expressing TRβ and RARα to these sequences was also tested.

[3] = tested on: F9 teratocarcinoma stem cells; experiment: CAT reporter transfection into RA responsive F9 teratocarcinoma stem cells; format: cell-based, mouse; details: RA 1 μM, 24 hours; no transfected receptor
Description: For cotransfection assays, a monkey kidney cell line CV-1 was kept in Dulbecco's modified Eagle's medium (DMEM) supplemented with 10% charcoal-resin double split calf bovine serum. Transfections were performed via calcium-phosphate precipitation method as described by Umesono, et al. in Cell 57: 1139-1146 (1989), with 0.5 μg of a pRS receptor expression plasmid, 1.0 μg of a reporter CAT plasmid, 5 μg of pRAS-βGAL [Umesono, et al., Cell 57: 1139-1146 (1989)] as an internal control, and 8.5 μg of carrier plasmid pUC19. The cells were transfected for 8 hours; after washing the DNA precipitates, the cells were then incubated for an additional 36 hours with or without the ligand (T3, 100 nM; RA, 1 μM; 1,25-(OH)2 vitamin D3, 100 nM). Cell extracts were prepared for βGAL and CAT assays, as described by Umesono, et al., supra. Transfection of F9 teratocarcinoma cells was carried out employing a similar method except the cells were incubated for 12 hours in the presence of the DNA precipitates, and the RA was added at 1 μM for another 24 hours before harvesting the cells. 2, 5, and 4 μg of the reporter, pRAS-βGAL, and pUC19 were used, respectively.
Similarly, when the same set of reporters as in FIG. 4 were transfected into F9 cells, only MHC-R (5-nucleotide spacer) and TREp are potent RAREs. In contrast, its RARE antecedents (MHC-N, MHC+1, MHC-T) are inert.

[4] = target: T3, RAR (Homo sapiens, UniProt P10276); experiment: Delta-MTV constructs, RA induction in CV-1 cells with cotransfected RAR expression vector; format: cell-based; details: Delta-MTV-CAT constructs; CV-1 cells
T3 construct: expressed in transfected cells; host or cells: CV-1 (monkey kidney)
T3 sequence (P10276 1-462): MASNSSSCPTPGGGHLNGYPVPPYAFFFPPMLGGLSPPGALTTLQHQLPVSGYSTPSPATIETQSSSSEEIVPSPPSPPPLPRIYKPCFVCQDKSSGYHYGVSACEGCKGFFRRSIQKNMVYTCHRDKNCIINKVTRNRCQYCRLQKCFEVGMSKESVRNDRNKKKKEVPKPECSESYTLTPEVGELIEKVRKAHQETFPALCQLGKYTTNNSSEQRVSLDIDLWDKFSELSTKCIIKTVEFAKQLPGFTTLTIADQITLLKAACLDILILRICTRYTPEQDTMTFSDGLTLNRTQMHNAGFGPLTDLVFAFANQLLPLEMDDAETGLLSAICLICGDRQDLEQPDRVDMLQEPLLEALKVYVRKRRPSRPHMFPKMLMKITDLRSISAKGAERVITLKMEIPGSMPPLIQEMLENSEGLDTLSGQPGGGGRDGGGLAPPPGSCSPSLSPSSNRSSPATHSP
Description: Inspection of the sequences of βRE1, βRE2, and βRE3 (see FIG. 2b) identifies a tandem repeat of the 6 bp motif. The center to center separation of 11 bp between these repeats is one turn of the DNA helix. […] Apparently, a single half site element of the RARβ gene would reciprocally be responsive to the TR, ER, and/or other members of the receptor superfamily.
(§2) Cells were transfected in 10 cm dishes with 10 μg of DNA containing 5 μg of reporter plasmid, 1-2 μg of either RSV-LUC (a), or RSV-βGAL or pCH110 (c and d), pGEM4 as carrier DNA, and for the experiments shown in a and d, 1 μg of RSV-RAR expression vector or the same amount of an RSV vector generating a nonsense transcript. Cells were harvested 1 day after addition of retinoic acid. All CAT assays represent equivalent amounts of β-galactosidase activity; β-GAL assays were normalized to luciferase activity.

[5] = tested on: endogenous RA receptor; experiment: Delta-MTV-CAT constructs, RA induction in CV-1 cells without cotransfected RAR expression vector; format: cell-based, monkey
Description: as §2

Substance	competition for RARα binding to 32P-labeled βRARE [1]	competition for TRβ binding (mobility shift assay) [2]	function as RARE in F9 cells [3]	RARα binding to labeled oligonucleotide probe ([1]; gel retardation, RARα COS cell extract)	increase of induction by cotransfection of RAR-alpha expression vector [4]	RA-dependent induction in the absence of cotransfected RAR expression vector [5]
MHC-T: MHC-N with the AGGACA half-site corrected to AGGTCA (SEQ ID NO:23) (AGCTGGAGGTGACAGGAGGTCAGCAAGCT; DNA, backbone not given here; double-stranded response element with agct overhangs, cloned into reporter plasmid)	fails to compete efficiently	efficient competition	inert	–	–	–
MHC-R: MHC-T with half-site spacing increased by one nucleotide (SEQ ID NO:24) (AGCTGGAGGTGAACAGGAGGTCAGCAAGCT; DNA, backbone not given here; double-stranded response element with agct overhangs, cloned into reporter plasmid)	effective competitors	poor competitors	potent RAREs	–	–	–
DR-5: perfect tandem repeat of AGGTCA hexamers separated by 5 nucleotides (SEQ ID NO:29) (AGCTTCAGGTCACCAGGAGGTCAGAGAGCT; DNA, backbone not given here; double-stranded DNA response element with agct overhangs, cloned into reporter)	–	–	functional RARE	specific protein-DNA complex	–	–
5′-AAGCTTAAG-GGTTCA-CCGAA-AGTTCA-CTCAGCTT-3′ (SEQ ID NO:7) (AAGCTTAAGGGTTCACCGAAAGTTCACTCAGCTT; listed as DNA, chemistry not given here) [βRE3, oligonucleotide including the β retinoic acid response element]	–	–	–	–	two-fold	robust RA-dependent induction
